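Grown in 96-well plates, cells were treated for 48 hours with each compound at five concentrations. Insufficient inhibition: endpoint recorded as highest concentration tested. At the TGI there is no net growth.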
Assays:
Assay in all cases: NCI anticancer screen, dose series, 48 h
[1] = tested on: K-562 leukemia
[2] = tested on: OVCAR-5 ovarian
[3] = tested on: MDA-N
[4] = tested on: HCT-15 colon
[5] = tested on: OVCAR-3 ovarian
[6] = tested on: EKVX NSCLC
[7] = tested on: TK-10 renal
[8] = tested on: HT29 colon
[9] = tested on: PC-3 prostate
[10] = tested on: SW-620 colon
[11] = tested on: KM12 colon
[12] = tested on: M14 melanoma
[13] = tested on: SK-MEL-2 melanoma
[14] = tested on: NCI-H460 lung
[15] = tested on: HL-60(TB) leukemia
[16] = tested on: CCRF-CEM leukemia
[17] = tested on: HS 578T breast
[18] = tested on: U251 CNS
[19] = tested on: UO-31 renal
[20] = tested on: NCI-H23 lung
[21] = tested on: NCI/ADR-RES ovarian
[22] = tested on: LOX IMVI melanoma
[23] = tested on: UACC-62 melanoma
[24] = tested on: OVCAR-4 ovarian
[25] = tested on: MALME-3M melanoma
[26] = tested on: SN12C renal
[27] = tested on: T-47D breast
[28] = tested on: RXF 393 renal
[29] = tested on: SK-MEL-5 melanoma
[30] = tested on: BT-549 breast
[31] = tested on: HCT-116 colon
[32] = tested on: MCF7 breast
[33] = tested on: IGROV1 ovarian
[34] = tested on: SF-295 CNS
[35] = tested on: SK-OV-3 ovarian
[36] = tested on: NCI-H226 lung
[37] = tested on: ACHN renal
[38] = tested on: SR leukemia
[39] = tested on: A549 NSCLC
[40] = tested on: DU-145 prostate
[41] = tested on: 786-0 renal
[42] = tested on: CAKI-1 renal
[43] = tested on: MDA-MB-435
[44] = tested on: SF-539 CNS
[45] = tested on: MDA-MB-231 breast
[46] = tested on: HOP-62 NSCLC
[47] = tested on: UACC-257 melanoma
[48] = tested on: COLO 205 colon
[49] = tested on: SF-268 CNS
[50] = tested on: A498 renal
[51] = tested on: SNB-75 CNS
[52] = tested on: OVCAR-8 ovarian
[53] = tested on: SK-MEL-28 melanoma
[54] = tested on: RPMI-8226 leukemia
[55] = tested on: HCC-2998 colon
[56] = tested on: NCI-H522 lung
[57] = tested on: SNB-19 CNS
[58] = tested on: MOLT-4 leukemia
[59] = tested on: HOP-92 NSCLC

`CCOC(=O)O/C(=C\c1ccc(OC)cc1)c1c(OC(=O)OCC)n(C(=O)OCC)c2ccccc12` showed a TGI [1] of over 100 µM, a TGI [2] of over 100 µM and a TGI [3] of over 100 µM. It also gave a TGI [4] of over 100 µM, a TGI [5] of over 100 µM and a TGI [6] of over 100 µM. For the same compound, the TGI [7] was 93.7 µM, the TGI [8] was over 100 µM and the TGI [9] was over 100 µM. It also gave a TGI [10] of over 100 µM, a TGI [11] of over 100 µM and a TGI [12] of over 100 µM. For the same compound, the TGI [13] was over 100 µM, the TGI [14] was 30.3 µM and the TGI [15] was over 100 µM. The TGI [16] was over 100 µM, the TGI [17] was over 100 µM and the TGI [18] was over 100 µM. The TGI [19] was over 100 µM, the TGI [20] was over 100 µM and the TGI [21] was over 100 µM. For the same compound, the TGI [22] was over 100 µM, the TGI [23] was over 100 µM and the TGI [24] was over 100 µM. It also gave a TGI [25] of over 100 µM, a TGI [26] of over 100 µM and a TGI [27] of over 100 µM. It also gave a TGI [28] of 67.9 µM, a TGI [29] of over 100 µM and a TGI [30] of over 100 µM. For the same compound, the TGI [31] was over 100 µM, the TGI [32] was over 100 µM and the TGI [33] was over 100 µM. For the same compound, the TGI [34] was over 100 µM, the TGI [35] was 99.7 µM and the TGI [36] was over 100 µM. It also gave a TGI [37] of over 100 µM, a TGI [38] of over 100 µM and a TGI [39] of over 100 µM. The TGI [40] was over 100 µM, the TGI [41] was over 100 µM and the TGI [42] was over 100 µM. The TGI [43] was over 100 µM, the TGI [44] was over 100 µM and the TGI [45] was 77.6 µM. It also gave a TGI [46] of over 100 µM, a TGI [47] of over 100 µM and a TGI [48] of over 100 µM. The TGI [49] was over 100 µM, the TGI [50] was 27.3 µM and the TGI [51] was over 100 µM. The TGI [52] was over 100 µM and the TGI [53] was over 100 µM.

Work on `Cc1cc(OCC(=O)O)c(Cl)cc1Cl` yielded a TGI [1] of over 100 µM, a TGI [2] of over 100 µM and a TGI [3] of over 100 µM. The TGI [4] was over 100 µM, the TGI [5] was over 100 µM and the TGI [6] was over 100 µM. For the same compound, the TGI [7] was over 100 µM, the TGI [8] was over 100 µM and the TGI [9] was over 100 µM. It also gave a TGI [10] of over 100 µM, a TGI [11] of over 100 µM and a TGI [12] of over 100 µM. It also gave a TGI [13] of over 100 µM, a TGI [14] of over 100 µM and a TGI [15] of over 100 µM. For the same compound, the TGI [54] was over 100 µM, the TGI [17] was over 100 µM and the TGI [18] was over 100 µM. The TGI [19] was over 100 µM, the TGI [20] was over 100 µM and the TGI [21] was over 100 µM. For the same compound, the TGI [22] was over 100 µM, the TGI [23] was over 100 µM and the TGI [55] was over 100 µM. The TGI [56] was over 100 µM, the TGI [24] was over 100 µM and the TGI [25] was over 100 µM. It also gave a TGI [26] of over 100 µM, a TGI [27] of over 100 µM and a TGI [28] of over 100 µM. It also gave a TGI [29] of over 100 µM, a TGI [30] of over 100 µM and a TGI [31] of over 100 µM. For the same compound, the TGI [57] was over 100 µM, the TGI [33] was over 100 µM and the TGI [34] was over 100 µM. The TGI [36] was over 100 µM, the TGI [58] was over 100 µM and the TGI [37] was over 100 µM. For the same compound, the TGI [38] was over 100 µM, the TGI [39] was over 100 µM and the TGI [40] was over 100 µM. For the same compound, the TGI [41] was over 100 µM, the TGI [42] was over 100 µM and the TGI [43] was over 100 µM. The TGI [45] was over 100 µM, the TGI [46] was over 100 µM and the TGI [59] was over 100 µM. The TGI [47] was over 100 µM, the TGI [49] was over 100 µM and the TGI [50] was over 100 µM. For the same compound, the TGI [52] was over 100 µM and the TGI [53] was over 100 µM.

`CC(C)(C)/C(O)=C\c1nc2ccc(C(F)(F)F)cc2[nH]c1=O` was tested, and the TGI [1] was over 100 µM, the TGI [2] was over 100 µM and the TGI [3] was over 100 µM. For the same compound, the TGI [4] was over 100 µM, the TGI [5] was over 100 µM and the TGI [6] was over 100 µM. For the same compound, the TGI [7] was over 100 µM, the TGI [8] was over 100 µM and the TGI [9] was over 100 µM. The TGI [10] was over 100 µM, the TGI [11] was over 100 µM and the TGI [12] was over 100 µM. It also gave a TGI [13] of over 100 µM, a TGI [54] of over 100 µM and a TGI [16] of over 100 µM. For the same compound, the TGI [17] was over 100 µM, the TGI [18] was over 100 µM and the TGI [19] was over 100 µM. For the same compound, the TGI [20] was over 100 µM, the TGI [21] was over 100 µM and the TGI [22] was over 100 µM. For the same compound, the TGI [23] was over 100 µM, the TGI [56] was over 100 µM and the TGI [24] was over 100 µM. It also gave a TGI [25] of over 100 µM, a TGI [26] of over 100 µM and a TGI [27] of over 100 µM. For the same compound, the TGI [28] was over 100 µM, the TGI [29] was over 100 µM and the TGI [30] was over 100 µM. The TGI [31] was over 100 µM, the TGI [57] was over 100 µM and the TGI [33] was over 100 µM. The TGI [34] was over 100 µM, the TGI [35] was over 100 µM and the TGI [36] was over 100 µM. The TGI [58] was over 100 µM, the TGI [37] was over 100 µM and the TGI [38] was over 100 µM. For the same compound, the TGI [39] was over 100 µM, the TGI [40] was over 100 µM and the TGI [41] was over 100 µM. It also gave a TGI [42] of over 100 µM, a TGI [43] of over 100 µM and a TGI [45] of over 100 µM. It also gave a TGI [46] of over 100 µM, a TGI [59] of over 100 µM and a TGI [47] of over 100 µM. The TGI [48] was over 100 µM, the TGI [49] was over 100 µM and the TGI [50] was over 100 µM. It also gave a TGI [51] of over 100 µM, a TGI [52] of over 100 µM and a TGI [53] of over 100 µM.
